How the values were obtained:
Assay type in all cases: in vivo
[1] = system: Beet Armyworm (Spodoptera exigua); assay: Bioassay on Beet Armyworm (BAW), 128-well diet tray assay; conditions: Beet Armyworm, Table ABC, read-out: BAW rating
In short: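 Percent mortality, averaged over eight wells, was scored after five to seven days at 25° C under 14:10 light-dark. Each well's diet carried 50 μg/cm^2 of test molecule applied in acetone-water (90:10) and dried before one to five second-instar larvae were added.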

[2] = system: Cabbage Looper (Trichoplusia ni); assay: Bioassay on Cabbage Looper (CL), 128-well diet tray assay; conditions: Cabbage Looper, Table ABC, read-out: CL rating
In short: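 Mortality after five to seven days at 25° C (14:10 photoperiod), averaged over eight wells per compound. Diet in each well carried 50 μg/cm^2 of dried test molecule and received one to five second-instar larvae.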

[3] = system: Yellow Fever Mosquito (Aedes aegypti); assay: Bioassay on Yellow Fever Mosquito (YFM) larvae, 96-well plate; conditions: Table ABC
Experimental: Example C: Bioassays on Yellow Fever Mosquito (Aedes Aegypti, AEDSAE) (“YFM”)
Certain molecules disclosed in this document were tested against YFM using procedures described in the following paragraph. In the reporting of the results, the “GPA & YFM Rating Table” was used (See Table Section).
Master plates containing 400 μg of a molecule dissolved in 100 μL of dimethyl sulfoxide (DMSO) (equivalent to a 4000 ppm solution) are used. A master plate of assembled molecules contains 15 μL per well. To this plate, 135 μL of a 90:10 water:acetone mixture is added to each well. A robot (Biomek® NXP Laboratory Automation Workstation) is programmed to dispense 15 μL aspirations from the master plate into an empty 96-well shallow plate (“daughter” plate). There are 6 reps (“daughter” plates) created per master. The created daughter plates are then immediately infested with YFM larvae.
The day before plates are to be treated, mosquito eggs are placed in Millipore water containing liver powder to begin hatching (4 g. into 400 mL). After the daughter plates are created using the robot, they are infested with 220 μL of the liver powder/larval mosquito mixture (about 1 day-old larvae). After plates are infested with mosquito larvae, a non-evaporative lid is used to cover the plate to reduce drying. Plates are held at room temperature for 3 days prior to grading. After 3 days, each well is observed and scored based on mortality. The results are indicated in the table entitled “Table ABC: Biological Results” (See Table Section).

| Compound | pest or weed control at 50 µg/cm2 [1] [%] | pest or weed control at 50 µg/cm2 [2] [%] | YFM rating [3] |
| --- | --- | --- | --- |
| O=C(NC1(C(=O)NCC(F)(F)F)CC1)c1ccc(/C(F)=C/C(c2ccc(Cl)c(Cl)c2)C(F)(F)F)cc1C(F)(F)F (stereo not drawn) [F41, (Z)-4-(3-(3,4-Dichlorophenyl)-1,4,4,4-tetrafluorobut-1-en-1-yl)-N-(1-((2,2,2-trifluoroethyl)carbamoyl)cyclopropyl)-2-(trifluoromethyl)benzamide] | 50 to 100 | 50 to 100 | A (80-100) |
| C[C@@H](NC(=O)c1ccc(/C(F)=C/C(c2ccc(Cl)c(Cl)c2)C(F)(F)F)cc1C(F)(F)F)C(=O)NCC(F)(F)F (stereo partly drawn) [F42, 4-((Z)-3-(3,4-Dichlorophenyl)-1,4,4,4-tetrafluorobut-1-en-1-yl)-N—((R)-1-oxo-1-((2,2,2-trifluoroethyl)amino)propan-2-yl)-2-(trifluoromethyl)benzamide] | 50 to 100 | 50 to 100 | A (80-100) |
| O=C(CNC(=O)c1ccc(/C(F)=C/C(c2ccc(Cl)c(Cl)c2)C(F)(F)F)cc1C(F)(F)F)NCC(F)(F)F (stereo not drawn) [F43, (Z)-4-(3-(3,4-Dichlorophenyl)-1,4,4,4-tetrafluorobut-1-en-1-yl)-N-(2-oxo-2-((2,2,2-trifluoroethyl)amino)ethyl)-2-(trifluoromethyl)benzamide] | 50 to 100 | 50 to 100 | A (80-100) |
| C[C@@H](NC(=O)c1ccc(/C(F)=C/C(c2cc(Br)c(Cl)c(Br)c2)C(F)(F)F)cc1C(F)(F)F)C(=O)NCC(F)(F)F (stereo partly drawn) [F44, 4-((Z)-3-(3,5-Dibromo-4-chlorophenyl)-1,4,4,4-tetrafluorobut-1-en-1-yl)-N—((R)-1-oxo-1-((2,2,2-trifluoroethyl)amino)propan-2-yl)-2-(trifluoromethyl)benzamide] | 50 to 100 | 50 to 100 | A (80-100) |
| O=C(NC1(C(=O)NCC(F)(F)F)CC1)c1ccc(/C(F)=C/C(c2cc(Br)c(Cl)c(Br)c2)C(F)(F)F)cc1C(F)(F)F (stereo not drawn) [F45, (Z)-4-(3-(3,5-Dibromo-4-chlorophenyl)-1,4,4,4-tetrafluorobut-1-en-1-yl)-N-(1-((2,2,2-trifluoroethyl)carbamoyl)cyclopropyl)-2-(trifluoromethyl)benzamide] | 50 to 100 | 50 to 100 | A (80-100) |
| O=C(CNC(=O)c1ccc(/C(F)=C/C(c2cc(Br)c(Cl)c(Br)c2)C(F)(F)F)cc1C(F)(F)F)NCC(F)(F)F (stereo not drawn) [F46, (Z)-4-(3-(3,5-Dibromo-4-chlorophenyl)-1,4,4,4-tetrafluorobut-1-en-1-yl)-N-(2-oxo-2-((2,2,2-trifluoroethyl)amino)ethyl)-2-(trifluoromethyl)benzamide] | 50 to 100 | 50 to 100 | A (80-100) |
| C=Cc1c(Cl)cc(C(/C=C(\F)c2ccc(C(=O)N[C@H](C)C(=O)NCC(F)(F)F)c(C(F)(F)F)c2)C(F)(F)F)cc1Cl (stereo partly drawn) [F52, 4-((Z)-3-(3,5-Dichloro-4-vinylphenyl)-1,4,4,4-tetrafluorobut-1-en-1-yl)-N—((R)-1-oxo-1-((2,2,2-trifluoroethyl)amino)propan-2-yl)-2-(trifluoromethyl)benzamide] | 50 to 100 | 50 to 100 | A (80-100) |
| CCN1OC[C@@H](NC(=O)c2ccc(/C(F)=C/C(c3cc(Cl)c(Cl)c(Cl)c3)C(F)(F)F)cc2C(F)(F)F)C1=O (stereo partly drawn) [F53, N—((R)-2-Ethyl-3-oxoisoxazolidin-4-yl)-4-((Z)-1,4,4,4-tetrafluoro-3-(3,4,5-trichlorophenyl)but-1-en-1-yl)-2-(trifluoromethyl)benzamide] | 50 to 100 | 50 to 100 | A (80-100) |
| C[C@@H](NC(=O)c1ccc(/C(F)=C/C(c2cc(Cl)c(Br)c(Cl)c2)C(F)(F)F)cc1C(F)(F)F)C(=O)NCC(F)(F)F (stereo partly drawn) [F59, 4-((Z)-3-(4-Bromo-3,5-dichlorophenyl)-1,4,4,4-tetrafluorobut-1-en-1-yl)-N—((R)-1-oxo-1-((2,2,2-trifluoroethyl)amino)propan-2-yl)-2-(trifluoromethyl)benzamide] | 50 to 100 | 50 to 100 | A (80-100) |
| O=C(NC1(C(=O)NCC(F)(F)F)CC1)c1ccc(/C(F)=C/C(c2cc(Cl)c(Br)c(Cl)c2)C(F)(F)F)cc1C(F)(F)F (stereo not drawn) [F60, (Z)-4-(3-(4-Bromo-3,5-dichlorophenyl)-1,4,4,4-tetrafluorobut-1-en-1-yl)-N-(1-((2,2,2-trifluoroethyl)carbamoyl)cyclopropyl)-2-(trifluoromethyl)benzamide] | 50 to 100 | 50 to 100 | A (80-100) |
| C=Cc1c(Cl)cc(C(/C=C(\F)c2ccc(C(=O)NCC(=O)NCC(F)(F)F)c(C(F)(F)F)c2)C(F)(F)F)cc1Cl (stereo not drawn) [F61, (Z)-4-(3-(3,5-Dichloro-4-vinylphenyl)-1,4,4,4-tetrafluorobut-1-en-1-yl)-N-(2-oxo-2-((2,2,2-trifluoroethyl)amino)ethyl)-2-(trifluoromethyl)benzamide] | 50 to 100 | 50 to 100 | A (80-100) |
| CN(CC(=O)NCC(F)(F)F)C(=O)c1ccc(/C(F)=C/C(c2cc(Cl)c(Cl)c(Cl)c2)C(F)(F)F)cc1C(F)(F)F (stereo not drawn) [F68, (Z)—N-Methyl-N-(2-oxo-2-((2,2,2-trifluoroethyl)amino)ethyl)-4-(1,4,4,4-tetrafluoro-3-(3,4,5-trichlorophenyl)but-1-en-1-yl)-2-(trifluoromethyl)benzamide] | 50 to 100 | 50 to 100 | A (80-100) |
| Cc1cc(C(/C=C(\F)c2ccc(C(=O)N[C@H](C)C(=O)NCC(F)(F)F)c(C(F)(F)F)c2)C(F)(F)F)cc(C)c1Cl (stereo partly drawn) [F69, 4-((Z)-3-(4-Chloro-3,5-dimethylphenyl)-1,4,4,4-tetrafluorobut-1-en-1-yl)-N—((R)-1-oxo-1-((2,2,2-trifluoroethyl)amino)propan-2-yl)-2-(trifluoromethyl)benzamide] | 50 to 100 | 50 to 100 | A (80-100) |
| Cc1cc(C(/C=C(\F)c2ccc(C(=O)NC3(C(=O)NCC(F)(F)F)CC3)c(C(F)(F)F)c2)C(F)(F)F)cc(C)c1Cl (stereo not drawn) [F70, (Z)-4-(3-(4-Chloro-3,5-dimethylphenyl)-1,4,4,4-tetrafluorobut-1-en-1-yl)-N-(1-((2,2,2-trifluoroethyl)carbamoyl)cyclopropyl)-2-(trifluoromethyl)benzamide] | 50 to 100 | 50 to 100 | A (80-100) |
| Cc1cc(C(/C=C(\F)c2ccc(C(=O)NCC(=O)NCC(F)(F)F)c(C(F)(F)F)c2)C(F)(F)F)cc(C)c1Cl (stereo not drawn) [F71, (Z)-4-(3-(4-Chloro-3,5-dimethylphenyl)-1,4,4,4-tetrafluorobut-1-en-1-yl)-N-(2-oxo-2-((2,2,2-trifluoroethyl)amino)ethyl)-2-(trifluoromethyl)benzamide] | 50 to 100 | 50 to 100 | B (More than 0-Less than 80) |
| C[C@@H](NC(=O)c1ccc(/C(F)=C/C(c2cc(Cl)cc(Cl)c2)C(F)(F)F)cc1C(F)(F)F)C(=O)N(C)CC(F)(F)F (stereo partly drawn) [F72, 4-((Z)-3-(3,5-Dichlorophenyl)-1,4,4,4-tetrafluorobut-1-en-1-yl)-N—((R)-1-(methyl(2,2,2-trifluoroethyl)amino)-1-oxopropan-2-yl)-2-(trifluoromethyl)benzamide] | 50 to 100 | 50 to 100 | A (80-100) |
| C[C@@H](NC(=O)c1ccc(/C(F)=C/C(c2ccc(Cl)c(Cl)c2)C(F)(F)F)cc1C(F)(F)F)C(=O)N(C)CC(F)(F)F (stereo partly drawn) [F73, 4-((Z)-3-(3,4-Dichlorophenyl)-1,4,4,4-tetrafluorobut-1-en-1-yl)-N—((R)-1-(methyl(2,2,2-trifluoroethyl)amino)-1-oxopropan-2-yl)-2-(trifluoromethyl)benzamide] | 50 to 100 | 50 to 100 | A (80-100) |
| CN(CC(F)(F)F)C(=O)CNC(=O)c1ccc(/C(F)=C/C(c2ccc(Cl)c(Cl)c2)C(F)(F)F)cc1C(F)(F)F (stereo not drawn) [F74, (Z)-4-(3-(3,4-Dichlorophenyl)-1,4,4,4-tetrafluorobut-1-en-1-yl)-N-(2-(methyl(2,2,2-trifluoroethyl)amino)-2-oxoethyl)-2-(trifluoromethyl)benzamide] | 50 to 100 | 50 to 100 | A (80-100) |

From US10251394B2, “Molecules having pesticidal utility, and intermediates, compositions, and processes, related thereto” (Dow AgroSciences LLC, priority 2016, dated 2019)
